According to patent publication US5457103A, “3',5'-di-tert.-butyl-4'-hydroxy flavones” (Adir et Compagnie, priority 1992, dated 1995):

Legend:
Human LDLs [1] = test: Modification of LDLs by copper sulphate (inhibition of LDL oxidation, MDA production); assay type: biochemical; conditions: 24 hours, copper sulfate 5 μM, compounds 0.1 μM to 100 μM; read-out: IC50 (reduction by 50% of the production of MDA), oxidation of LDLs by copper sulfate
Description: (§1) This activity was compared with that of probucol and vitamin E taken as reference products.
Modification of LDLs by copper sulphate
Human LDLs are incubated for 24 hours in the presence of copper sulfate (5 μM) and in the absence or in the presence of the compounds tested (from 0.1 μM to 100 μM).
After incubation, the peroxidation of the LDLs is evaluated by electrophoresis on agar gel and by the formation of one of the products of lipid peroxidation: malonic dialdehyde (MDA) (cf. Parthasarathy S. et al., J. Clin. Invest., 77, (1986), 641-644).
The activity of the compounds tested is evaluated by calculating the concentrations that reduce by 50% (IC50) the production of MDA compared with the control experiments in the absence of a product of the invention.

Human LDLs [2] = test: Modification of LDLs by endothelial cells of the rabbit aorta (inhibition of LDL oxidation, MDA production); assay type: cell-based; conditions: 24 hours, endothelial cells of rabbit aorta (RECL B4 line), compounds 0.1 to 100 μM; read-out: IC50 (reduction by 50% of the production of MDA), oxidation of LDLs by endothelial cells
Description: as §1
Modification of LDLs by endothelial cells
Human LDLs are incubated for 24 hours in the presence of endothelial cells of the rabbit aorta (RECL B4 line, provenance: Pr. Steinberg, USA) and in the absence or in the presence of the tested compounds (from 0.1 to 100 μM).
After incubation, the peroxidation of the LDLs is evaluated as in Example 21 by electrophoresis on agar gel and by the formation of MDA (cf. Steinbrecher, U.P. et al., Proc. Nat. Acad. Sci. USA, 81, (1984), 3883-3887). The activity of the compounds tested is evaluated by calculating the concentrations that reduce by 50% (IC50) the production of MDA compared with the control experiments in the absence of a product of the invention.
The results of this test of inhibition of oxidation of LDLs by endothelial cells are grouped below: […]

[3] = tested on: coronary arteries caused to contract by F2α prostaglandin (PGF2α); test: Vasorelaxant activity on isolated coronary artery rings contracted by PGF2α; parameters: species or system Yucatan miniature pigs; conditions: for activity at 0.1 µM / activity at 0.3 µM / activity at 1 µM / activity at 3 µM / activity at 10 µM: 0.25 h, PGF2α 4 μM, indomethacin 10 μM, cumulative concentrations every 15 minutes, read-out: tension as a percentage of the maximum tension observed under PGF2α
Description: Study of the compounds of the invention on isolated vessels
Yucatan miniature pigs (Ch. River) are anaesthetised with pentobarbitone. The circumflex branch of the left coronary artery is removed and proximal rings of approximately 4 mm are prepared. The organs are placed in a temperature-controlled 20 ml bath containing a physiological solution having the composition:
maintained at 37° C., pH =7.4 and with 95% oxygen and 5% carbon dioxide. The initial tension is established progressively up to 6 g. After a stabilisation period of 60 minutes, the rings are caused to contract by PGF2a (4 μM) in the presence of indomethacin (10 μM). As soon as this concentration has stabilised, the products of the present invention are tested by adding cumulative concentrations of the product of Example 17 and probucol every 15 minutes in comparison with the control experiments with the solvent used (dimethyl sulfoxide:DMSO).

Compound	IC50 (Human LDLs [1]) [nM]	IC50 (Human LDLs [2]) [nM]	also measured
CC(C)(C)c1cc(-c2cc(=O)c3ccc(OCC(=O)N4CCN(Cc5ccccc5)CC4)cc3o2)cc(C(C)(C)C)c1O [Example 6, 3',5'-di-tert.-butyl-4'-hydroxy-7-[2"-(N-benzylpiperazino)-2"-oxo-ethoxy]flavone]	3000		
CCN(CC)C(=O)COc1ccc2c(=O)cc(-c3cc(C(C)(C)C)c(O)c(C(C)(C)C)c3)oc2c1 [Example 7, 3',5'-di-tert-butyl-4'-hydroxy-7-(N,N-diethylacetamidoxy) flavone]	3000		
CCCCCCOc1ccc2c(=O)cc(-c3cc(C(C)(C)C)c(O)c(C(C)(C)C)c3)oc2c1 [Example 2, 3',5'-di-tert.-butyl-7-n-hexyloxy-4'-hydroxyflavone]	5000		
CC(C)(C)c1cc(-c2cc(=O)c3ccc(OCc4ccc(Cl)cc4)cc3o2)cc(C(C)(C)C)c1O [Example 4, 7-p-chlorobenzyloxy-3',5'-di-tert.-butyl-4'-hydroxyflavone]	7000		
CC(C)(C)c1cc(-c2cc(=O)c3ccc(O)cc3o2)cc(C(C)(C)C)c1O [Example 1, 3',5'-di-tert-butyl-7,4'-dihydroxyflavone]	1000		
CC(C)(C)c1cc(-c2cc(=O)c3ccccc3o2)cc(C(C)(C)C)c1O [Example 14, 3',5'-di-tert-butyl-4'-hydroxyflavone]	3000	2500	
CC(C)(Sc1cc(C(C)(C)C)c(O)c(C(C)(C)C)c1)Sc1cc(C(C)(C)C)c(O)c(C(C)(C)C)c1 [PROBUCOL, reference compound]	3000	4000	activity at 0.1 µM ([3]; Sus scrofa): 93.3%; activity at 0.3 µM ([3]; Sus scrofa): 85.6%; activity at 1 µM ([3]; Sus scrofa): 77.3%; activity at 3 µM ([3]; Sus scrofa): 66%; activity at 10 µM ([3]; Sus scrofa): 49.2%
CCOC(=O)C(C)(C)Oc1ccc2c(=O)cc(-c3cc(C(C)(C)C)c(O)c(C(C)(C)C)c3)oc2c1 [Example 15, Ethyl 2-17-(3',5'-di-tert.-butyl-4'-hydroxy)flavonyl]oxy-2,2-dimethyl acetate]	3000	500	
CC(C)(C)c1cc(-c2cc(=O)c3ccc(OCC(=O)O)cc3o2)cc(C(C)(C)C)c1O [Example 17, 2-[7-(3',5'-di-tert.-butyl-4'-hydroxy)flavonyl]oxyacetic acid]	3000	500	
CC(C)(C)c1cc(C(=O)Oc2ccc3c(=O)cc(-c4cc(C(C)(C)C)c(O)c(C(C)(C)C)c4)oc3c2)cc(C(C)(C)C)c1O [Example 20, 3',5'-di-tert-butyl-4'-hydroxy-7-(3",5"-di-tert-butyl-4"-hydroxy)benzoyloxyflavone]	30000	700	
CC(C)(C)c1cc(-c2cc(=O)c3ccc(OCC(=O)N4CCCCC4)cc3o2)cc(C(C)(C)C)c1O [Example 5, 3',5'-di-tert-butyl-4'-hydroxy-7-(2"-piperidino-2"-oxoethoxy)flavone]	3000		
VITAMIN E [reference compound]	> 100000	4000	
CC(C)(C)c1cc(-c2cc(=O)c3ccc(OCC(=O)O)cc3o2)cc(C(C)(C)C)c1O [Example 18]	5000		
CCOC(=O)COc1ccc2c(=O)cc(-c3cc(C(C)(C)C)c(O)c(C(C)(C)C)c3)oc2c1 [Example 16, Ethyl 2-[7-(3',5'-di-tert.-butyl-4'-hydroxy)flavonyl]oxyacetate]	3000	800	activity at 0.1 µM ([3]; Sus scrofa): 95.4%; activity at 0.3 µM ([3]; Sus scrofa): 85%; activity at 1 µM ([3]; Sus scrofa): 74.1%; activity at 3 µM ([3]; Sus scrofa): 37.3%; activity at 10 µM ([3]; Sus scrofa): 20.2%; IC50 ([3]; Sus scrofa, coronary artery rings contracted by PGF2α, read-out: IC50 of vascular relaxation): ~2600 nM; vascular relaxation (in words) ([3]; coronary artery rings contracted by PGF2α): concentration-dependent vascular relaxation
CC(C)(C)c1cc(-c2cc(=O)c3ccc(OCCN4CCOCC4)cc3o2)cc(C(C)(C)C)c1O [Example 3, 3', 5'-di-tert.-butyl-4'-hydroxy-.7-(4"-morpholinylethoxy)flavone]	800		
